Data set [1] concerns Klebsiella pneumoniae (ATCC-1705). The data set can be described thus: Antibacterial assay, micro broth dilution. More on the design: key: Active = Bacterial activity; --- = no activity. To be noted: 25 μg/mL. In kind it is cell-based. (Dilution methods test growth across graded concentrations, often in twofold steps.)
For the next data set, the system named is MRSA. The data set is described as follows: Antibacterial assay, resistant strains. Format: cell-based. To be noted: Staphylococcus aureus, resistant strain. From the text: (§1) The micro broth dilution method was used to establish the antibacterial potential of test samples against Staphylococcus aureus (ATCC-6538), Bacillus subtilis (ATCC-6633), Escherichia coli (ATCC-25922), Klebsiella pneumoniae (ATCC-1705), and Pseudomonas aeruginosa (ATCC-15442) and for the resistant strains of MRSA Staphylococcus aureus, P. aeruginosa and Escherichia coli. The procedure used is described by ([Sarker et al., 2007]). Bacterial inoculum was formed under aseptic conditions keeping the density near 5 × 10^4 CFU/mL in pre-autoclaved nutrient broth. Test samples of an aliquot of 5 µL were shifted to labeled wells of 96 well plates, and after that addition of 195 µL of nutrient broth; was accomplished. After that, a 2-fold serial dilution of every sample was arranged to get final concentrations of 12.5 μg/mL. Then, with the help of a micropipette, 195 µL of bacterial culture of respective strains was poured into each well; further advancement was incubating of plates for 30 min at the temperature of 37°C. […] Incubation of plates was again carried out at 37°C for 1 day, absorbance was noted, and net change in turbidity was the difference between two values of absorbance.
(§2) Schiff base tri-azo compounds were investigated for antibacterial potential. […] 6.25 μg/mL for 5b and 5g, and the least, Table 4 3.12 μg/mL was for 5f. […] Substituents with electron-withdrawing attributes, e.g., -NO2, -Cl, -OH on the aromatic ring, assert a great impact on the antibacterial activity of synthetic compounds. It is also observed that an increase in the number of -OH groups tend to enhance the activity ([Hosamani and Shingalapur, 2011]). Due to the difference in cell-wall composition of Gram + ve and -ve bacteria, different compounds show different features towards the same micro-organism ([Goszczyn’ska et al., 2015]).

Data set [2] relates to Streptomyces 85 E strains. The data set can be described thus: Protein kinase inhibition assay. In kind it is cell-based. More on the design: key: Active = Bacterial activity; --- = no activity. The note with it: Sample Concentration = 20 μg/mL; Surfactin B 20 μg/mL. As for the experimental part: The protocol followed for this is mentioned ([Fatima et al., 2015]). To assess the test compound’s inhibitory potential, Streptomyces 85 E strains were used, which were refreshed in tryptone soya broth at 37 for 1 day. Spores from refreshed cultures were utilized to prepare the bacterial culture. 100 μg compound was loaded on 5 mm discs of filter paper. These were kept on sowed plates. DMSO-permeated discs were the -ve control. The incubation period was 7 days, and outcomes were stated as bald and clear zones of inhibition.
These synthetic products were evaluated to estimate the inhibitory potential for protein kinase of […] 85 E. Protein kinase is involved with the mycelium production of this species, so the growth patterns were observed as the bald zone. […] One of the propitious targets in cancer treatment is the inhibition of protein kinases. Protein phosphorylation by protein kinases at various residues regulates diverse biological processes, which may include apoptosis, proliferation and differentiation of cells. Deregulation at any step in early tumorigenesis may lead to cancer ([Yao et al., 2011]). Aerial hyphae formation in Streptomyces depends upon protein kinase activity; this scenario is exploited in this test; to inquire about these compounds’ kinase inhibition potential and to look at their anti-cancer potential. The advantage of using Streptomyces for kinase inhibition assay is its predisposition to a wide range of eukaryotic cells. Whole-cell assay of Streptomyces not only identifies the compound’s cytotoxic potential but also identifies signal transduction inhibitors for various activities, e.g., antitumor, anti-mycobacterial, and anti-infective ([Waters et al., 2002]). […] Activity with a bald zone of 10.5 mm and a clear zone of 7.5 mm, following is 5a with a bald zone of 9 mm and a clear zone of 6 mm, and for 5g, values are 7.5 and 6 mm, respectively. It means that these compounds have the potential for protein kinase inhibition as well as the toxicity of the compound.

Data set [3] relates to Bacillus subtilis (ATCC-6633). The data set can be described thus: Antibacterial assay, micro broth dilution. On the set-up: key to Antibacterial activity, Bacillus subtilis: Activity: Active = Bacterial activity; --- = no activity. In kind it is cell-based. To be noted: 25 μg/mL.
Excerpt: as §1, §2

Data set [4] can be described thus: Total reducing power (TRP assay). The note with it: mean ± SD. As for the experimental part: The process used for TRP was illustrated by ([Bibi et al., 2011]). The […] method is used for 100 μL of each solution, 200 μL Phosphate buffer (0.2 M, pH 6.6), and 250 μL of potassium ferricyanide was mixed and incubated at 50°C for 20 min, to this solution, 10 percent (200 μL) trichloroacetic acid was added, centrifugation was done at 3,000 rpm for 10 min, the supernatant was collected, added with FeCl3 (50 μL), and shifted to the microplate. Absorbance was recorded at 700 nm. Ascorbic acid (100 μg/mL DMSO) is the +ve control for the test, and dimethyl sulfoxide (DMSO) is the blank.
The primary mechanism of TRP assay is based on the compound’s capacity to reduce free radicals, which are generated during the procedure. i.e., Fe^3+ is reduced to Fe^2+ ([Lee et al., 2015]). Various factors determine the antioxidant potential of the compound; a few to explain include the chemical attributes, nature of antioxidant moieties, conditions and mechanism of the reaction, which accounts for the reason for a compound’s activity in one assay and none-to-less response in the other ([Francenia Santos-Sanchez et al., 2019]). However, compounds with hydroxyl and methoxy groups form the bases for potential candidates as an antioxidant ([Rakesh et al., 2015]).

The nature of data set [5]: DPPH free radical scavenging assay. To be noted: at 50 μg/mL. As for the experimental part: The DPPH assay was executed via the technique stated by ([Bibi et al., 2011]). DPPH(Diphenyl-1-picrylhydrazyl), a free radical, is bagged to inquire about the antioxidant ability of the synthesized compounds. 10 μL from the synthesized compound (1 mg/mL DMSO) is added to 190 μL DPPH solution., making up the final conc. of 50 μg/mL.
DPPH assay was repeated in triplicate using DMSO as -ve and ascorbic acid as + ve control; findings are expressed as means standard deviation.
It is one of the very commonly utilized methods for the assessment of the antioxidant ability of compounds. DPPH turns from purple to yellow, which indicates the synthetic compound’s scavenging potential ([Rahman et al., 2017]). DMSO and A.A. were used as -ve and +ve control. The antioxidant potential of compounds was assessed at 50 μg/mL, 25 μg/mL, 12.5 μg/mL, and 6.25 μg/mL. […] Production of free radicals is an outcome of regular oxygen consumption in the body; whenever something is missing with the natural antioxidant mechanism, the accumulation of these free radicals may lead to cytotoxic interaction with the body systems and may cause damage to genomic content of various cells, and proteins in the body ([Barbuceanu et al., 2014]). Free radical accumulation is also associated with different diseases, e.g., coronary heart disease, neuronic disorders, diabetes, necrosis, and various tumors ([Ismaili.et al., 2008]). The antioxidant potential of the compound depends upon its reducing power; the introduction of hydroxy and methoxy groups on the Benzene ring led to better reducing power or promising antioxidant activity ([Rakesh et al., 2015]).
For orientation: The DPPH test is a chemical assay of radical scavenging.

Usually MIC stands for the lowest concentration found to suppress growth.

Values after ≈ are worked out from the molar mass of the structure shown.

Regarding `S=c1[nH]nc(Cc2c[nH]c3ccccc23)n1N=Cc1cccc(Cl)c1` [Compound 5f], in data set [1], the “Antibacterial activity, Klebsiella pneumoniae: Activity” value is “Active”. Further, the MIC against MRSA stood at 12.5 µg/mL (≈ 34 µM). The Clear zone entry in data set [2] is given as “---”. The “Antibacterial activity, Bacillus subtilis: Activity” value in data set [3] was “---”.
With `COc1cccc(C=Nn2c(Cc3c[nH]c4ccccc34)n[nH]c2=S)c1` [Compound 5b], the TRP in data set [4] was 706.42 ± 0.004 µg AAE/mg. Also, the “Antibacterial activity, Klebsiella pneumoniae: Activity” value in data set [1] was “Active”. Besides, the “%DPPH inhibition (% free radical scavenging)” value in data set [5] worked out at 32%. Besides, the MIC in the data set on MRSA was 12.5 µg/mL (≈ 34.4 µM). Moreover, the Clear zone in data set [2] was found to be 7.5 mm. Moreover, the “Antibacterial activity, Bacillus subtilis: Activity” value in data set [3] is recorded as “---”.
For the compound `Oc1ccc(C=Nn2c(Cc3c[nH]c4ccccc34)n[nH]c2=S)cc1` [Compound 5e], in data set [4], the TRP came to 619.18 ± 0.010 µg AAE/mg. In data set [1], the “Antibacterial activity, Klebsiella pneumoniae: Activity” value was “Active”. In data set [5], the “%DPPH inhibition (% free radical scavenging)” value was 8.3%. Also, in the data set on MRSA, the MIC was 12.5 µg/mL (≈ 35.8 µM). Further, the Clear zone result in data set [2] is given as “---”. For the same compound, the “Antibacterial activity, Bacillus subtilis: Activity” value in data set [3] is “---”.
Turning to `O=[N+]([O-])c1ccc(C=Nn2c(Cc3c[nH]c4ccccc34)n[nH]c2=S)cc1` [Compound 5d], the “Antibacterial activity, Klebsiella pneumoniae: Activity” value in data set [1] is “Active”. In addition, the “%DPPH inhibition (% free radical scavenging)” value in data set [5] is 11.1%. In addition, the MIC with MRSA was 12.5 µg/mL (≈ 33 µM). For the same compound, the Clear zone result in data set [2] is “---”.
In the case of `Oc1cccc(C=Nn2c(Cc3c[nH]c4ccccc34)n[nH]c2=S)c1` [Compound 5a], in data set [4], the TRP is listed as 592.26 ± 0.007 µg AAE/mg. The “Antibacterial activity, Klebsiella pneumoniae: Activity” value in data set [1] is on record as “Active”. The MIC in the data set with MRSA was 12.5 µg/mL (≈ 35.8 µM). In data set [2], this compound showed a Clear zone of 6 mm.
Consider `S=c1[nH]nc(Cc2c[nH]c3ccccc23)n1N=Cc1ccc(Cl)cc1` [Compound 5c], for which, in data set [1], the “Antibacterial activity, Klebsiella pneumoniae: Activity” value is “Active”. In addition, the “%DPPH inhibition (% free radical scavenging)” value in data set [5] is on record as 11.1%. Further, the MIC in the data set with MRSA was 12.5 µg/mL (≈ 34 µM). Further, the Clear zone result in data set [2] is “---”.
As to `COc1cc(C=Nn2c(Cc3c[nH]c4ccccc34)n[nH]c2=S)cc(OC)c1OC` [Compound 5g], in data set [4], the TRP came out at 642.67 ± 0.001 µg AAE/mg. For the same compound, the “Antibacterial activity, Klebsiella pneumoniae: Activity” value in data set [1] is on record as “Active”. Further, in the data set on MRSA, the MIC came out at 12.5 µg/mL (≈ 29.5 µM). Also, the “Antibacterial activity, Bacillus subtilis: Activity” value in data set [3] is “---”.

These data come from PMC10009108, “Design, synthesis and screening of indole acetic acid-based tri-azo moieties as antioxidants, anti-microbial and cytotoxic agents” (Frontiers in Pharmacology, 2023).
